Results reported in paper PMC10541198, “Specific quinone reductase 2 inhibitors reduce metabolic burden and reverse Alzheimer’s disease phenotype in mice” (The Journal of Clinical Investigation, 2023).
Several values for one entry are separate records, joined by “and”; a condition that tells them apart may be missing. Equal entries are not always repeated.

Assays:
4-HNE = test: Immunoblot of 4-HNE 3 hours after CA1 microinjection; type: in vivo, mouse
Protocol: In order to evaluate the efficacy of some of the leading QR2is in vivo, we carried out double-blind experiments using 2 different modalities (Supplemental Methods), measuring memory that is dependent on different brain areas. First, cortical memory was tested using incidental novel taste learning (see Methods), in which an unfamiliar, but palatable and safe, taste is given for the first time, and the memory for this newly learned taste is then assessed 2 days later. This is done by measuring the volume of the taste consumed upon subsequent exposure to it ([32]) (Figure 4A). […] Next, hippocampal-dependent learning was evaluated using delay fear conditioning (DFC; see Methods) ([33]). Mice were cannulated to the CA1 region of the hippocampus and were microinjected with YB-537 (1 μL of 5 μM, Figure 4, D and H) or vehicle. […] In order to evaluate any possible effect of acute QR2i microinjection on metabolic stress in the mouse brain, ISR activation was measured by quantifying total and phosphorylated eukaryotic initiation factor 2 α (eIF2α) levels (Supplemental Figure 3A) and lipid peroxidation product, 4-hydroxynonenal (4-HNE; Supplemental Figure 3B), by immunoblot 3 hours after the injection. […]

QR2Δ HCT116 cells = test: H2DCFDA detection of cellular ROS in QR2 KO cells; type: cell-based, human; settings: 20 μM, 3 hour
Protocol: To establish direct target engagement and cell membrane permeability, a cellular thermal shift assay (CETSA) was carried out, using leading QR2is YB’s-537, 800, and 808. Following a 1 hour preincubation with 5 μM of the QR2is or vehicle, thermal aggregation curves (Taggs) of QR2 expressed in HEK293T were measured in increasing temperatures. All QR2is increased QR2 thermal stability compared with vehicle (Supplemental Figure 2A). Based on the Tagg curves we selected 73°C for isothermal dose-response fingerprint (IDTRF) experiments (Supplemental Figure 2B). The ITDRF allowed the relative quantification of the binding of each of the QR2is to QR2, measured as the EC50 (Figure 3A). […] We evaluated the safety of the QR2is using cell toxicity and viability assays. […] Cell viability was assessed by XTT assay in HEK239T cells, using a dose response, with 3- or 24-hour incubations of the leading QR2is. […] We then assessed WT HCT116 cells by immunoblot (Supplemental Figure 2, C and D), after being treated with YB-800 (2 μM) for 4 consecutive days. […]
The cells wer e har ves t ed a nd resuspended in 1% cl ear m e di um ( DM EM – with no phenol red, suppl em ent ed with 1% FBS, 1% L-Glutamine and 1% Penicillin-Streptomycin). […] The plate wa s then incubated in the dark at 37°C f or 3 h, before reading in a Tecan M200 Pro florescence microplate reader, using wavelengths Ex/Em = 485 nm / 535 nm . […]

| SMILES | 4-HNE levels (4-HNE; 3 hours after microinjection in the mouse hippocampus) | Sup. Fig. 3B, immunoblot signal (4-HNE; individual animals) | ROS levels (replicates) (QR2Δ HCT116 cells) |
| --- | --- | --- | --- |
| Cc1ccc(-c2cn3cccc(C)c3n2)cc1S(=O)(=O)N1CCNCC1 [YB-537] | insignificant reduction | 1.944 and 1.965 and 2.545 and 1.185 and 0.887 and 2.092 and 2.161 | – |
| Cc1ccc(-c2cn3cccc(C)c3n2)cc1S(=O)(=O)N1CCC(C)CC1 [YB-800] | – | – | 0.1657 and -0.09332 and -0.11 and 0.01889 and -0.0308 |
